Each block holds one molecule with its values, some of them ahead of it.
Columns and labels:
[1] = system: 5'ATP aptamer-bridge (DNA, aptamer) CTAGCGAGCGAACTTTACCTGGGGGAGTATTGCGGAGGAAGGT; assay: CD of origami-AuNR probe, single concentration; settings: 5 mM Mg2+, PBS, room temperature, overnight, up to 1 mM
[2] = system: 5'ATP aptamer-bridge (DNA, aptamer) CTAGCGAGCGAACTTTACCTGGGGGAGTATTGCGGAGGAAGGT; assay: CD of origami-AuNR probe, competitive hybridization, ATP concentration varied; settings: 5 mM Mg2+, PBS, room temperature, overnight, ATP 1 μM to 1 mM, displaced 5'ATPCS9 (n = 9)
[3] = system: 5'ATP aptamer-bridge (DNA, aptamer) CTAGCGAGCGAACTTTACCTGGGGGAGTATTGCGGAGGAAGGT; assay: CD of origami-AuNR probe, competitive hybridization, complementary strand length varied; settings: 5 mM Mg2+, PBS, room temperature, overnight, 1 mM ATP, displaced 5'ATPCS9-12, R^2 0.96
[4] = system: 5'glucose aptamer-bridge (DNA, aptamer) CTAGCGAGCGAACTTTACGACCGTGTGTGTTGCTCTGTAACAGTGTCCATTGTCGT; assay: CD of origami-AuNR probe, single concentration; settings: 5 mM Mg2+, PBS, room temperature, overnight, up to 100 mM fructose, displaced 5' strand n = 10
[5] = system: 5'glucose aptamer-bridge (DNA, aptamer) CTAGCGAGCGAACTTTACGACCGTGTGTGTTGCTCTGTAACAGTGTCCATTGTCGT; assay: CD of origami-AuNR probe, competitive hybridization, complementary strand length varied; settings: 5 mM Mg2+, PBS, room temperature, overnight, 100 mM glucose, displaced 5'gluCS8-12, R^2 0.99

SMILES: Nc1ccn([C@@H]2O[C@H](COP(=O)(O)OP(=O)(O)OP(=O)(O)O)[C@@H](O)[C@H]2O)c(=O)n1
- binding ([1]; displaced 5'ATPCS9, CD change 2.1% (ATP 53.7%)): no

SMILES: OCC1(O)OC[C@@H](O)[C@@H](O)[C@@H]1O (stereo partly drawn)
- binding [4]: no

SMILES: OC[C@H]1OC(O)[C@H](O)[C@@H](O)[C@@H]1O (stereo partly drawn)
- KD2^glu [5]: 5.57 ± 0.436 mM

More lines, now with the values ahead:

- binding ([1]; displaced 5'ATPCS9, CD change 3.6% (ATP 53.7%)): no
SMILES: Nc1nc2c(ncn2[C@@H]2O[C@H](COP(=O)(O)OP(=O)(O)OP(=O)(O)O)[C@@H](O)[C@H]2O)c(=O)[nH]1

- KD2^ATP [2]: 4.54 ± 0.580 µM
- KD2^ATP [3]: 5.71 ± 0.865 µM
SMILES: Nc1ncnc2c1ncn2[C@@H]1O[C@H](COP(=O)(O)OP(=O)(O)OP(=O)(O)O)[C@@H](O)[C@H]1O

— publication PMC8908738 (2022)
